Data taken from patent publication US9598414B2, “Substituted benzo[5,6]azepino[3,2,1-hi]pyrido[4,3-b]indoles and substituted benzo[6,7][1,4]oxazepino[2,3,4-hi]pyrido[4,3-b]indoles for treating CNS disorders” (Daya Drug Discoveries, Inc., priority 2013, dated 2017).
pKi: −log10 of the molar value.

Tests used:
[1] = biological target: Serotonin 5-HT1D (Homo sapiens, UniProt P28221); assay: Receptor binding, 5-HT1D
[2] = tested on: rats with a history of chronic meth self-administration; assay: Reinstatement of meth seeking; format: in vivo; details: 10 mg/kg i.p. just before reinstatement session (meth priming 1 mg/kg i.p. and cues), FIG. 3
Description: DDD-024 was initially tested for effects on the reinstatement of meth seeking in a small pilot group of rats with a history of chronic meth self-administration. […] Rats received a vehicle (10% DMSO) or DDD-024 (10 mg/kg) injection (i.p.) just before each reinstatement session, which consisted of a meth priming injection (1 mg/kg, i.p.) and presentation of meth-associated cues (tone and light) upon each lever press.

[3] = biological target: Dopamine D1 (Homo sapiens, UniProt P21728); assay: Receptor binding, D1
[4] = biological target: Muscarinic M3 (Homo sapiens, UniProt P20309); assay: Receptor binding, M3
[5] = biological target: Dopamine transporter (Homo sapiens, UniProt Q01959); assay: Receptor binding, dopamine transporter; details: Transporters: Dopamine
[6] = tested on: dopamine receptors; assay: Receptor binding, dopamine receptors; details: any of the dopamine receptors, summary of Table 1
[7] = biological target: Sigma σ1 (Homo sapiens, UniProt Q99720); assay: Receptor binding, σ1
[8] = biological target: T1, α-Adrenergic α2C (Homo sapiens, UniProt P18825); assay: Receptor binding, α2C
T1 sequence (P18825 1-462): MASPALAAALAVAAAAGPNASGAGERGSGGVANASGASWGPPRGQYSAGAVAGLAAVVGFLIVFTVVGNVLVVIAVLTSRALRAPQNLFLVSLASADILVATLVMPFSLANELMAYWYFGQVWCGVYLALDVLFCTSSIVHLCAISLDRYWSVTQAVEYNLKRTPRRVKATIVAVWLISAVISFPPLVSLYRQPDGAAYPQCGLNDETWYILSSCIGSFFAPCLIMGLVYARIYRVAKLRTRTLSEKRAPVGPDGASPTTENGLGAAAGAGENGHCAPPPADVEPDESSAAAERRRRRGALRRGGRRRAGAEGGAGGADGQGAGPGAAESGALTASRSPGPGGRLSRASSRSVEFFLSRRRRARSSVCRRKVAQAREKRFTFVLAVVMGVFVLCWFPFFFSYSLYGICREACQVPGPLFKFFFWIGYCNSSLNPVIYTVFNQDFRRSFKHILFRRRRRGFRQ

[9] = biological target: Serotonin 5-HT7 (Homo sapiens, UniProt P34969); assay: Receptor binding, 5-HT7
[10] = biological target: Opioid μ (Homo sapiens, UniProt P35372); assay: Receptor binding, opioid μ
[11] = biological target: Histamine H2 (Homo sapiens, UniProt P25021); assay: Receptor binding, H2
[12] = biological target: Serotonin transporter (Homo sapiens, UniProt P31645); assay: Receptor binding, serotonin transporter
[13] = biological target: Serotonin 5-HT2B (Homo sapiens, UniProt P41595); assay: Receptor binding, 5-HT2B
[14] = biological target: Serotonin 5-HT3 (Homo sapiens, UniProt P46098); assay: Receptor binding, 5-HT3
[15] = biological target: T2, Serotonin 5-HT2C (Homo sapiens, UniProt P28335); assay: Receptor binding, 5-HT2C
T2 sequence (P28335 33-458): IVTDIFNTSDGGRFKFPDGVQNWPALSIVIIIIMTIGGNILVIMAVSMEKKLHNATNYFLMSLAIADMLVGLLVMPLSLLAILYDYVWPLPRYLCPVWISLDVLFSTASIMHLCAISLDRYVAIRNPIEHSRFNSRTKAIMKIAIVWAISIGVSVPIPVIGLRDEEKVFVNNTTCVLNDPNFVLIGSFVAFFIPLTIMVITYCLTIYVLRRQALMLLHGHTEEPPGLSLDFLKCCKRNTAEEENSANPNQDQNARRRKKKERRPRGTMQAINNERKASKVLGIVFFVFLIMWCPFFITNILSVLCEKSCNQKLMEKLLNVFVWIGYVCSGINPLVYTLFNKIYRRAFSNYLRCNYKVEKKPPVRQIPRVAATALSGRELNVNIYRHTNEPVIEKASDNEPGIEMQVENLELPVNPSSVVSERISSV

[16] = biological target: β-Adrenergic β2 (Homo sapiens, UniProt P07550); assay: Receptor binding, β2
[17] = biological target: T3, Serotonin 5-HT1A (Homo sapiens, UniProt P08908); assay: Receptor binding, 5-HT1A
T3 sequence (P08908 1-422): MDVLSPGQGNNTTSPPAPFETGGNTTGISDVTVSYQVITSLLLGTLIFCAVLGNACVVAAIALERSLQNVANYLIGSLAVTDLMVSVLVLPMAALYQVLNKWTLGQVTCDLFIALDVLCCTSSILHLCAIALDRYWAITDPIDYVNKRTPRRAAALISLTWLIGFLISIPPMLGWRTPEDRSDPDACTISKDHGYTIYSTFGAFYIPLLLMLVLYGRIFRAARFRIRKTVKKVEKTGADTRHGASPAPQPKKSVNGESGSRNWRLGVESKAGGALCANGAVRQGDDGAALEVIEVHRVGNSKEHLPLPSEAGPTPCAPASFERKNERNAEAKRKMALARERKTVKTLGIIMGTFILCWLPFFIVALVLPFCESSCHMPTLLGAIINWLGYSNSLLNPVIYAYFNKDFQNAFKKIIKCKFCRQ

[18] = biological target: Norepinephrine transporter (Homo sapiens, UniProt P23975); assay: Receptor binding, norepinephrine transporter; details: Transporters: Norepinephrine
[19] = biological target: Serotonin 5-HT2A (Homo sapiens, UniProt P28223); assay: Receptor binding, 5-HT2A
[20] = tested on: rats; assay: Forced swim test (depression model); format: in vivo; details: 10 mg/kg i.p., 1 hour before test, versus imipramine 10 mg/kg, FIG. 5

Sequence of Serotonin 5-HT1D (P28221 whole entry): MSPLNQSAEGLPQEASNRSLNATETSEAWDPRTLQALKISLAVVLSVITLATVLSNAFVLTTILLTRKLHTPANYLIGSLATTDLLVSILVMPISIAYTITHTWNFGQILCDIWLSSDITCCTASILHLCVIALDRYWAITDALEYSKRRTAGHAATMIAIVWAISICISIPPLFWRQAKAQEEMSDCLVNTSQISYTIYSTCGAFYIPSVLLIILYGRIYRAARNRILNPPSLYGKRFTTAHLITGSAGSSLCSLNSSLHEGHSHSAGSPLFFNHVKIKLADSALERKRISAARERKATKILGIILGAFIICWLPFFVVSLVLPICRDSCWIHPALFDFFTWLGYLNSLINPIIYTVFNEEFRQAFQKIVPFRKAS
Sequence of Serotonin 5-HT7 (P34969 whole entry): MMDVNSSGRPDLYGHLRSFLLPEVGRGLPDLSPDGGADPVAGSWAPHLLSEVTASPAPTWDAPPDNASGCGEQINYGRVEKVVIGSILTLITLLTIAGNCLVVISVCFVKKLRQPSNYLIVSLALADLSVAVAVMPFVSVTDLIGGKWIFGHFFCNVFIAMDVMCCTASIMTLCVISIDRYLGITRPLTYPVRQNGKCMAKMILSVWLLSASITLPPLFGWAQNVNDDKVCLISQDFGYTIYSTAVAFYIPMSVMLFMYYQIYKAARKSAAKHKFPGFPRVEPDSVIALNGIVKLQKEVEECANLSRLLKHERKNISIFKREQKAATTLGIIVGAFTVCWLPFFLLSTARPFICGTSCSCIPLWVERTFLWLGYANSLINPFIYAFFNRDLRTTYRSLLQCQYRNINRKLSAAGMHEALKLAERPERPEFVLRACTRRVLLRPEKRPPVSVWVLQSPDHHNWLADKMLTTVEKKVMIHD
Sequence of Serotonin 5-HT3 (P46098 24-478): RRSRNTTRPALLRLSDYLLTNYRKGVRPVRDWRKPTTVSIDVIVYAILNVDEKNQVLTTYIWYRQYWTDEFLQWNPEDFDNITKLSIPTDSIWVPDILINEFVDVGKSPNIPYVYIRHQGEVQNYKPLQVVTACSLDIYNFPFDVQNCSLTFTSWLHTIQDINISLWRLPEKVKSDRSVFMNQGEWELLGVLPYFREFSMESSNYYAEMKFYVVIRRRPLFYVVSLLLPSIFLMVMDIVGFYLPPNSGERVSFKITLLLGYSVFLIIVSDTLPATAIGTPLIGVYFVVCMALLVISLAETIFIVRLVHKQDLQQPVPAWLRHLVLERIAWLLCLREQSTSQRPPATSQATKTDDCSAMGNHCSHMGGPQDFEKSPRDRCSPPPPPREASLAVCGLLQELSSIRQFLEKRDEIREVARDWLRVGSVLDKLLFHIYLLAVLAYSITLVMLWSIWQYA
Sequence of β-Adrenergic β2 (P07550 whole entry): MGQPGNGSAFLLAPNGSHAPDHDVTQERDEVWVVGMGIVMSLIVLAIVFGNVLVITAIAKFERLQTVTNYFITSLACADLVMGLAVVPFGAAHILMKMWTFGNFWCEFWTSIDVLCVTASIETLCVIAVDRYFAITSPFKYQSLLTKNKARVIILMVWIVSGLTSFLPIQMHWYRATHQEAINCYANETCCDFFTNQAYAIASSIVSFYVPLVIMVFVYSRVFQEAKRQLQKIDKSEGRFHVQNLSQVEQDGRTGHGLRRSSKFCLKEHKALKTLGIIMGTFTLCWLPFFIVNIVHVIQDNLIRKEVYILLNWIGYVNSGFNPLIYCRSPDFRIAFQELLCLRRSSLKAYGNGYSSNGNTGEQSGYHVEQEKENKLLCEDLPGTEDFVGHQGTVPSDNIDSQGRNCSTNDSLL
Sequence of Muscarinic M3 (P20309 whole entry): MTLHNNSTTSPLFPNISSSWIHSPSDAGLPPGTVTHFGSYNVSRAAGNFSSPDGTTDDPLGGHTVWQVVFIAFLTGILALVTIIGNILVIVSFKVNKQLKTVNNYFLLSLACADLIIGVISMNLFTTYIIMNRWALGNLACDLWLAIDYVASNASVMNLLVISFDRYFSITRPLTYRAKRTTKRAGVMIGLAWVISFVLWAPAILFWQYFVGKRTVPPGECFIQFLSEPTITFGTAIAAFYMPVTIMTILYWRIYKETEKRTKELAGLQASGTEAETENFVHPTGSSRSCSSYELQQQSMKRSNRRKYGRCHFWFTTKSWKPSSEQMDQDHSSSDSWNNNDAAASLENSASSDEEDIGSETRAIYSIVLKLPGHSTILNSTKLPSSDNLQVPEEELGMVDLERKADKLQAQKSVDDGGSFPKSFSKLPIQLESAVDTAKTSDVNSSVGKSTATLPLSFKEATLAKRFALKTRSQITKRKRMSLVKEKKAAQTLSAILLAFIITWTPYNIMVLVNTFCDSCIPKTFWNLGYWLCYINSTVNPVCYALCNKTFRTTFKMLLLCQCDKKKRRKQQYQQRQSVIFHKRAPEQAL
Sequence of Histamine H2 (P25021 whole entry): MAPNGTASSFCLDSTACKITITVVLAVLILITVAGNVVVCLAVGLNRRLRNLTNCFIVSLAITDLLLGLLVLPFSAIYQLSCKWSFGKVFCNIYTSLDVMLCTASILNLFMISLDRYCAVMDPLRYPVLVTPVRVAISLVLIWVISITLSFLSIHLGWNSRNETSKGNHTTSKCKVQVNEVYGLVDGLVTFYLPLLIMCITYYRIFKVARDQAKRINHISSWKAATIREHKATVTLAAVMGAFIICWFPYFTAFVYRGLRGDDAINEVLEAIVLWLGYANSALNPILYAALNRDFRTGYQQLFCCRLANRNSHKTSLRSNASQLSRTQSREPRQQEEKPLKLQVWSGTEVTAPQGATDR
Sequence of Serotonin transporter (P31645 whole entry): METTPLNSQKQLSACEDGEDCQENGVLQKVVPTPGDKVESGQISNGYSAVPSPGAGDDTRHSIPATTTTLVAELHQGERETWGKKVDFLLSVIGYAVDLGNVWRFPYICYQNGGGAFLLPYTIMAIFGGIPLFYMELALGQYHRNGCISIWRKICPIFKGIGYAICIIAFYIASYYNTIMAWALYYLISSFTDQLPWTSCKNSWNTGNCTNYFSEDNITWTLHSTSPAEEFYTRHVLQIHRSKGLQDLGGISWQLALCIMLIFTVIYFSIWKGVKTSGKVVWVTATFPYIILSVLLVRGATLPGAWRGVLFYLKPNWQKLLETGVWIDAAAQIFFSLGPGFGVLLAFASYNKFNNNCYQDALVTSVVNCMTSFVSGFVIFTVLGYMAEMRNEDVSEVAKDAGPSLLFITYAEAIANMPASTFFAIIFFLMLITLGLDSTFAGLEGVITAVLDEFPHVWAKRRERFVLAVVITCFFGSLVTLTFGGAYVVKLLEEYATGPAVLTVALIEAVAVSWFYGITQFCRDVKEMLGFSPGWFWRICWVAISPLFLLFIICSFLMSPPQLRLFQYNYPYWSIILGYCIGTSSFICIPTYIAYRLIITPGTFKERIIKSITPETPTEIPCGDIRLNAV
Sequence of Norepinephrine transporter (P23975 whole entry): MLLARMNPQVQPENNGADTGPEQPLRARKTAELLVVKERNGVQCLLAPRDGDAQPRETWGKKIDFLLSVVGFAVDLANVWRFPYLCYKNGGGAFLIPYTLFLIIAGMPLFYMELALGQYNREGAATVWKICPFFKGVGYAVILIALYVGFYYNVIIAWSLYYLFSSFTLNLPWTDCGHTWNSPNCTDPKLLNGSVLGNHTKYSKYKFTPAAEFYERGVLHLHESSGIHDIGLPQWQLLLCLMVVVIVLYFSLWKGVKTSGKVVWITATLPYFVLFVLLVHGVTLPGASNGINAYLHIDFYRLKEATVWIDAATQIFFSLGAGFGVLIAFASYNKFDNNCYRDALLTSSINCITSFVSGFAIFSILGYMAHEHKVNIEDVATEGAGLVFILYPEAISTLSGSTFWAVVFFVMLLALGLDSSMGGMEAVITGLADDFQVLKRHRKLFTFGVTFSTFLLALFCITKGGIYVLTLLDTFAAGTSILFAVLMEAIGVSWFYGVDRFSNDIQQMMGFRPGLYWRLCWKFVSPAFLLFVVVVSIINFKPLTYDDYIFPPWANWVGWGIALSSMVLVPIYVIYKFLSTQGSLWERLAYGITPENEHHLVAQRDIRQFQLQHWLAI
Sequence of Opioid μ (P35372 whole entry): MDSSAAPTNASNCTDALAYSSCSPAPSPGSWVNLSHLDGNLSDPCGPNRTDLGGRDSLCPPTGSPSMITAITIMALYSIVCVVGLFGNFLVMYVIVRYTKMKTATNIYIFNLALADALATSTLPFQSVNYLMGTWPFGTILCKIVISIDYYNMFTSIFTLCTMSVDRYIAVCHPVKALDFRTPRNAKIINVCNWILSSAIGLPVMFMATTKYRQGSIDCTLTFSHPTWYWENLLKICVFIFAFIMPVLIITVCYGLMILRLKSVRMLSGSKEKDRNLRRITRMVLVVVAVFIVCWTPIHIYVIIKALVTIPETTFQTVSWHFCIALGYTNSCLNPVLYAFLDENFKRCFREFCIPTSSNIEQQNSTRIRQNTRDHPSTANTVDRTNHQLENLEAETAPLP
Sequence of Sigma σ1 (Q99720 whole entry): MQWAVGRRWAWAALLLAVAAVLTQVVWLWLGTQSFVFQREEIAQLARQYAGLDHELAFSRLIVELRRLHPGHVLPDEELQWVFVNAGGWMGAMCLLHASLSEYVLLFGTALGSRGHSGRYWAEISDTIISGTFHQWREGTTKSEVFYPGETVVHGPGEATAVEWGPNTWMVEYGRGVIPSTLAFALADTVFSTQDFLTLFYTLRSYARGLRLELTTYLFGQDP

pKi [1]: 6.41 | binding, in words ([1]; summary of Table 1): moderate binding | pKi [3]: < 5.00 | pKi [4]: < 5.00 | pKi [5]: < 5.00 | pKi [7]: 6.66 | pKi [8]: 6.29 | pKi ([9]; 5-HT7): 6.59 | binding, in words ([9]; 5-HT7, text summary of Table 1): moderate binding | pKi [10]: < 5.00 | pKi [11]: 5.32 | pKi [12]: 6.38 | pKi [13]: 6.71 | pKi [14]: < 5.00 | pKi ([15]; 5-HT2C): 6.61 | binding, in words ([15]; HT2c, summary of Table 1): moderate binding | pKi [16]: < 5.00 | pKi [17]: 7.49 | binding, in words ([17]; summary of Table 1): binds strongly | pKi [18]: 5.71 | pKi [19]: 6.03
SMILES: CN1CCc2c(c3cccc4c3n2Cc2ccccc2O4)C1 [Compound 13b]
number of lever presses (meth seeking behavior) [2]: significantly reduced | binding, in words [6]: neither of the two compounds 13a and 13b binds significantly | antidepressive activity (immobility, forced swim test) [20]: comparable to imipramine
